Assay results as given in patent US20100144858A1, “Treatment of movement disorders with a metabotropic glutamate 4 receptor positive allosteric modulator” (priority 2003, published 2010).
“Also recorded” adds a separate entry of the source. Like-named read-outs stand apart in the source and are kept apart here.

Legend:
striato-pallidal synapse = assay: Brain slice whole-cell patch-clamp, evoked IPSCs at striato-pallidal synapse; design: species or system rat; conditions: for effect on striato-pallidal transmission, compound alone: L-AP4 1 μM, PHCCC 30 μM, rat brain slice
Experimental: Animals: All studies were performed in an AAALAC accredited facility in accordance with all applicable guidelines regarding the care and use of animals. Animals were group housed with access to food and water ad libitum. Slice Preparation: All experiments were performed on slices from 26 to 30-d-old Sprague Dawley rats (Taconic, Germantown, N.Y.). Animals were killed by decapitation and brains were rapidly removed and submerged in an ice-cold solution containing (in mM): choline chloride 126, KCl 2.5, NaH2PO4 1.2, MgCl2 1.3, MgSO4 8, glucose 10, and NaHCO3 26, equilibrated with 95% O2/5% CO2 (11). The brain was glued to the chuck of a vibrating blade microtome (Leics Microsystems, Nussloch GmbH) and parasagittal slices (300 μm thick) were obtained. Slices were immediately transferred to a 500 ml holding chamber containing artificial cerebrospinal fluid (in mM): NaCl 124, KCl 2.5, MgSO4 1.3, NaH2PO4 1.0, CaCl2 2, glucose 20, and NaHCO3 26, equilibrated with 95% O2/5% CO2 that was maintained at 32° C. After 20-min at 32° C., the holding chamber was allowed to gradually decrease to room temperature. In all experiments 5 μM glutathione, 500 μM pyruvate, and 250 μM kynurenic acid were included in the choline chloride buffer and in the holding chamber ACSF. Electrophysiology: Whole-cell patch-clamp recordings were obtained (Marino et al., (2001) J. Neurosci. 21: 7001-7012. During recording, slices were maintained fully submerged on the stage of a 1 ml brain slice chamber at 32° C. and perfused continuously with equilibrated ACSF (2-3 ml/min). Neurons were visualized using a differential interference contrast microscope and an infrared video system. Patch electrodes were pulled from borosilicate glass on a two-stage puller and had resistances in the range of 3-7 MΩ when filled with the following internal solution: (in mM): potassium gluconate 125, NaCl 4, NaH2PO4 6, CaCl2 1, MgSO4 2, BAPTA-tetrapotassium salt 10, HEPES 10, Mg-ATP 2, Na2-GTP 0.3, pH=7.4. All recordings were done using HEKA EPC9 patch clamp amplifiers (HEKA Elektronik, Lambrecht/Pfalz, Germany). […]

[1] = test system: reserpine-induced akinesia; assay: Reserpine-induced akinesia model of Parkinson's disease; assay type: in vivo; conditions: rat, 75 nmol icv, reserpine 5 mg/kg sc, beam breaks/30 min
Experimental: Behavior: Third ventricle cannulated male Sprague-Dawley rats (250-350) were purchased from Taconic Farms (Germantown, N.Y.) with guide cannula implanted such that subsequent placement of an injection cannula allowed for infusion into the third ventricle. These rats were used for intracerebral ventricular (icy) injection of test compounds within one week of arrival to the testing facility. All experiments were carried out during the light cycle (6.00-18.00).
Rats were injected with reserpine (5 mg/kg sc, dissolved in 1% acetic acid) and kept in their home cages for 1.5-2 hr post-injection. Activity was measured by placing rats in photocell activity cages (Hamilton-Kinder, Inc., Poway, Calif.) equipped with 16×16 infrared beams. […] Five min following the injection of test compound or vehicle, motor activity was recorded for an additional 30 min for each rat. Motor activity (cumulative beam breaks/30-min period) was recorded both pre- and post-drug treatment for each rat. […] Post hoc comparisons were performed using the Bonferroni test. Statistical significance was achieved when p<0.05. Data are expressed as mean +/− one SEM.

mGluR1b = biological target: T1, mGluR1b (Homo sapiens, UniProt Q13255); assay: FLIPR Ca2+ flux assay, mGluR1b antagonism; assay type: cell-based; conditions: 10 μM
T1 construct: expressed in transfected cells; host or cells: CHO or HEK cells
T1 sequence (Q13255 19-906 isoform Q13255-2 limits assumed): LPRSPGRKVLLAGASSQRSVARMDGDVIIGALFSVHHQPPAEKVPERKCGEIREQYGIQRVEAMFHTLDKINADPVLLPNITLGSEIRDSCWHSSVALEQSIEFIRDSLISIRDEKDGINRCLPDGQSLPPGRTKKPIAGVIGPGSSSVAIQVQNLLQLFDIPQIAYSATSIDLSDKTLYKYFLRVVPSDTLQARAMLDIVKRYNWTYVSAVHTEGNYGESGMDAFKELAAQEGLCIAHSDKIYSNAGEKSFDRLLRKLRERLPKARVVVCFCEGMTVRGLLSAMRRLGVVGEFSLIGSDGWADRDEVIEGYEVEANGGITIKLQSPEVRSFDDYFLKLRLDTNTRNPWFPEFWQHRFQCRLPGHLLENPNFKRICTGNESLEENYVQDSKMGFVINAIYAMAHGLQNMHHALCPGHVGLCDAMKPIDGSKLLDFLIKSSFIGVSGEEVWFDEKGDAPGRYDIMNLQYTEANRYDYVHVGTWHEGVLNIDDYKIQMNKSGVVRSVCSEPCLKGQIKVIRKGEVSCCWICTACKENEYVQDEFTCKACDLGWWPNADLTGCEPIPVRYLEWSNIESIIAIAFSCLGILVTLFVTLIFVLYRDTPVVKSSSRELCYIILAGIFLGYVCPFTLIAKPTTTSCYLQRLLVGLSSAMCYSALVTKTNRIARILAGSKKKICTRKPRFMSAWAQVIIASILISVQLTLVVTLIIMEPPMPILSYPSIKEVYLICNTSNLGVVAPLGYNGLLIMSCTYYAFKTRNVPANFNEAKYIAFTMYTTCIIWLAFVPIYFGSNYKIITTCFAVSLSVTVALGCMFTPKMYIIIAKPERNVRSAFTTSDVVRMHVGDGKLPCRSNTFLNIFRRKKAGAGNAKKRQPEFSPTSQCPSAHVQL

mGluR4 = assay: FLIPR Ca2+ flux assay in mGluR4 CHO cells; conditions: in the presence of 10 μM PHCCC
Experimental: (§1) Cells expressing mGluR2, mGluR4, mGluR7 and mGluR8 were coexpressed with Gα16, Gαqi5, Gα15 and Gα15, respectively. Cells were evaluated using a fluorometric imaging plate reader (FLIPR, Molecular Devices, Sunnyvale, Calif.), to measure their ability to mobilize Ca^2+ in response to appropriate agonists (i.e., glutamate and L-AP4).
(§2) CHO or HEK cells expressing mGluR receptors (mGluR CHO or HEK cells) were plated (50,000-70,000 cells/well) in clear-bottomed, poly-D-lysine-coated plates (Becton-Dickinson) in glutamate/glutamine-free medium. The plated cells were grown overnight at 37° C. in the presence of 6% CO2. The following day, the cells were washed with 3×100 μl assay buffer (Hanks Balanced Salt Solution containing 20 mM HEPES, 2.5 mM probenecid, and 0.1% bovine serum albumin) using a Skatron Embla cell washer. The cells were incubated with 1 μM Fluo-4AM (Molecular Probes, Eugene, Oreg.) for 1 h at 37° C. and 6% CO2. The extracellular dye was removed by washing as described above. […] Ca^2+ flux was measured using a FLIPR.

mGluR8 = biological target: T2, mGluR8 (Homo sapiens, UniProt O00222); assay: FLIPR Ca2+ flux assay, mGluR8 antagonism; assay type: cell-based; conditions: 10 μM
T2 construct: expressed in transfected cells; host or cells: CHO or HEK cells, co-expressing Gα15
T2 sequence (O00222 34-908, species assumed): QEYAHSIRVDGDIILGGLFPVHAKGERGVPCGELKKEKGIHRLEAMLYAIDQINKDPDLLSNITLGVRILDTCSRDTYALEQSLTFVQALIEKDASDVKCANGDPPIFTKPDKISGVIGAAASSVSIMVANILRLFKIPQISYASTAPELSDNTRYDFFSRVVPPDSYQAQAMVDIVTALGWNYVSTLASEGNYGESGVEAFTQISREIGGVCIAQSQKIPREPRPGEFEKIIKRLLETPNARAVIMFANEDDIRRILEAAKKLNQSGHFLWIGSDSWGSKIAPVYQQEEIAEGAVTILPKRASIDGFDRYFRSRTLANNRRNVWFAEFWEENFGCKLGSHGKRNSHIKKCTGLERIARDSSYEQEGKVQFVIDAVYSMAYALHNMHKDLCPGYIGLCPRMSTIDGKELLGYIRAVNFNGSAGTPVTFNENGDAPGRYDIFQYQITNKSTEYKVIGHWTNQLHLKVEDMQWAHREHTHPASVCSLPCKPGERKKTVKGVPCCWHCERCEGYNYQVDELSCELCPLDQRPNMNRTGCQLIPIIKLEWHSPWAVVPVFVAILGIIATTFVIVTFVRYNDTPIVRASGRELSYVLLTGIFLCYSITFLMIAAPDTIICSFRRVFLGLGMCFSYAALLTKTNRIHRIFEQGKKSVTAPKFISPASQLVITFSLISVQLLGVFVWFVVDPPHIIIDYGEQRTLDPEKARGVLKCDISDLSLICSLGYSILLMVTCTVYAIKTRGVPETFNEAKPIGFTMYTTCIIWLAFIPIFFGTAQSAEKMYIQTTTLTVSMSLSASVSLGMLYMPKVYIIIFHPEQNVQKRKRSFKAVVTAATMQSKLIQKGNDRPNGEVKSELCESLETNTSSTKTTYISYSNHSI

any other mGluR subtype = assay: FLIPR Ca2+ flux assay, other mGluR subtypes (activation or potentiation); assay type: cell-based; conditions: 10 μM
mGluR2 = biological target: T3, mGluR2 (Homo sapiens, UniProt Q14416); assay: FLIPR Ca2+ flux assay, mGluR2 antagonism; assay type: cell-based; conditions: 10 μM
T3 construct: expressed in transfected cells; host or cells: CHO or HEK cells, co-expressing Gα16
T3 sequence (Q14416 19-872): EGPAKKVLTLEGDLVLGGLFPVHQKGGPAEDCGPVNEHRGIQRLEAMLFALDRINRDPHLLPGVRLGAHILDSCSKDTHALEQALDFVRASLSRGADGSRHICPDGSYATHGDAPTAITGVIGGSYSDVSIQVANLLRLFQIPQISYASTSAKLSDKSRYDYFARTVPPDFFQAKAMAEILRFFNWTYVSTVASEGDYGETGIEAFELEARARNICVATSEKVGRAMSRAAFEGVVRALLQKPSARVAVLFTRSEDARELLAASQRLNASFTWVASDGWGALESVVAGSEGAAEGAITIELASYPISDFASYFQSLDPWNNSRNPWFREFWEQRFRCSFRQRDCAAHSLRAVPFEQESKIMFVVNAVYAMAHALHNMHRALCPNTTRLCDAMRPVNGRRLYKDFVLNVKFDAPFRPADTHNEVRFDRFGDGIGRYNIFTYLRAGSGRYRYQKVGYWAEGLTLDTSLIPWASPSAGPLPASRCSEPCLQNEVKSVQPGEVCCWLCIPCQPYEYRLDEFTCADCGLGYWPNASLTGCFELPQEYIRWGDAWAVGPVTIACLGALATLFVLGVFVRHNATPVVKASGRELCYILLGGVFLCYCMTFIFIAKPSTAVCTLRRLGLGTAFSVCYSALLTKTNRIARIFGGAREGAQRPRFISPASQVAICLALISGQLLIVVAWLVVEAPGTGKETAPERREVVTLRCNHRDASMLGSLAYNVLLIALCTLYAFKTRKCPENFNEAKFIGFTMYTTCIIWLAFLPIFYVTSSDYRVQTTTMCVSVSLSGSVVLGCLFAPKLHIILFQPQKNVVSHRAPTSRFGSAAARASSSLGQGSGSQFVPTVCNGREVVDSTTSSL

[2] = test system: lateral perforant path-dentate gyrus (LPP-DG) synapse (mGluR8); assay: Hippocampal field recordings (fEPSPs), LPP-DG synapse; design: species or system rat; conditions: submaximal L-AP4; fEPSP slope
mGluR5a = biological target: T4, mGluR5a (Homo sapiens, UniProt P41594); assay: FLIPR Ca2+ flux assay, mGluR5a antagonism; assay type: cell-based; conditions: 10 μM
T4 construct: expressed in transfected cells; host or cells: CHO or HEK cells

[3] = test system: Schaffer collateral-CA1 (SC-CA1) synapse (mGluR7); assay: Hippocampal field recordings (fEPSPs), SC-CA1 synapse; design: species or system rat; conditions: submaximal L-AP4; fEPSP slope
human mGluR4 [4] = biological target: T5, human mGluR4 (Homo sapiens, UniProt Q14833); assay: FLIPR Ca2+ flux assay in mGluR4 CHO cells
Experimental: as §1, §2

rat mGluR4 = biological target: T6, rat mGluR4 (Rattus norvegicus, UniProt P31423); assay: FLIPR Ca2+ flux assay, rat mGluR4; assay type: cell-based; conditions: n=3, read-out: EC50 for L-AP4 activation of rat mGluR4
T6 construct: expressed in transfected cells; host or cells: CHO or HEK cells, co-expressing Gαqi5
T6 sequence (P31423 33-912): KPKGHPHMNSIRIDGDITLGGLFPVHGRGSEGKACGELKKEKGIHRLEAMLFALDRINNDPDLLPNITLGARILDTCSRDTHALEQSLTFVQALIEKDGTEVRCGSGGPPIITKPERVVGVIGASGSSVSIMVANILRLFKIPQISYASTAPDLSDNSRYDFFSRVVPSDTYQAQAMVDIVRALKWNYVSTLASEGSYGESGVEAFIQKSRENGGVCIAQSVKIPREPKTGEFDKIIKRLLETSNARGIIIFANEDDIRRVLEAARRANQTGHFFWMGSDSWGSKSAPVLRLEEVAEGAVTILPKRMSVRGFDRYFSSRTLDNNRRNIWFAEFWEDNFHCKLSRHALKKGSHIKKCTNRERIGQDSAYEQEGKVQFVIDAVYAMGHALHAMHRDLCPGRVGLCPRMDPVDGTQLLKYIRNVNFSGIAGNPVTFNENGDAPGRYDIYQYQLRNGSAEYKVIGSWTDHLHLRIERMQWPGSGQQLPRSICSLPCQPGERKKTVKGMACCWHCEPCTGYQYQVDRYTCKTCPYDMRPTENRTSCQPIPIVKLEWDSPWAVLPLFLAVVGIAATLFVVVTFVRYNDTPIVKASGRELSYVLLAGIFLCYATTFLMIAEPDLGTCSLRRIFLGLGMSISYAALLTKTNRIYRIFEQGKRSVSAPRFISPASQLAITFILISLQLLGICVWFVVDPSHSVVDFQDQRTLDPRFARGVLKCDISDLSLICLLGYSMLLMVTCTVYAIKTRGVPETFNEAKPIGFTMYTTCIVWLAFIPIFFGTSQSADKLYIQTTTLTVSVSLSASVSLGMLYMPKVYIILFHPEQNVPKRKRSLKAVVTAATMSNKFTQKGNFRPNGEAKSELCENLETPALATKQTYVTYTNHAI

human mGluR4 [5] = biological target: T5, human mGluR4; assay: FLIPR Ca2+ flux assay, human mGluR4; assay type: cell-based; design: expressed in transfected cells; host or cells: CHO or HEK cells, co-expressing Gαqi5; conditions: n=3, read-out: EC50 for L-AP4 activation of human mGluR4
Target sequence in this assay (Q14833 33-912): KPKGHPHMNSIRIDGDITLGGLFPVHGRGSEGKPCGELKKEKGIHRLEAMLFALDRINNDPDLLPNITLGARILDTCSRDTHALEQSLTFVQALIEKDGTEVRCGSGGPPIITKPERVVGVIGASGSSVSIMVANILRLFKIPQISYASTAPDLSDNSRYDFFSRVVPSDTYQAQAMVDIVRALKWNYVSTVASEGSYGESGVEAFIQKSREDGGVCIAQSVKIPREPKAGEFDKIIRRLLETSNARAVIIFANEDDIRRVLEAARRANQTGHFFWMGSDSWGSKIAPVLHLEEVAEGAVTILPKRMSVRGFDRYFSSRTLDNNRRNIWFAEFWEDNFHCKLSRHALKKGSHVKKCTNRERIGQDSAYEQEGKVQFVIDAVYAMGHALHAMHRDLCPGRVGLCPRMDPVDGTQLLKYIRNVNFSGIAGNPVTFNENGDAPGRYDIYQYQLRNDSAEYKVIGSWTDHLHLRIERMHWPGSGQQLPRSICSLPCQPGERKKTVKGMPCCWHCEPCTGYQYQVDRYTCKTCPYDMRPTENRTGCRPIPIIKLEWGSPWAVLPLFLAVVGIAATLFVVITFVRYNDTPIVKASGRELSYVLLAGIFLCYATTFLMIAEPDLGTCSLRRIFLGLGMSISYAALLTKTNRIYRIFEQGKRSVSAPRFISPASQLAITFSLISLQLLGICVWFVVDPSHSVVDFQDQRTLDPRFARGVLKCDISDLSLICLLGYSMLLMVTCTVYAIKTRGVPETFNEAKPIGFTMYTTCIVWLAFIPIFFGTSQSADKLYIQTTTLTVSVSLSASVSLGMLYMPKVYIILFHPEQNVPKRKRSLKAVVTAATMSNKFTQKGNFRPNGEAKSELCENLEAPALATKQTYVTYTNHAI
Experimental: as §1, §2

Molecule | effect on striato-pallidal transmission, co-application with L-AP4 (striato-pallidal synapse; 30 μM PHCCC and 1 μM L-AP4, p<0.01, n=4) | effect on striato-pallidal transmission, compound alone (striato-pallidal synapse) | locomotor activity (reversal of reserpine-induced akinesia) [1] | block of response of mGluR1b to glutamate (mGluR1b) | increase of the maximal effect of L-AP4 (mGluR4) | block of response of mGluR8 to glutamate (mGluR8) | activation or potentiation of responses of other mGluR subtypes (any other mGluR subtype) | block of response of mGluR2 to glutamate (mGluR2) | effect on L-AP4-induced inhibition of transmission at LPP-DG synapse [2] | block of response of mGluR5a to glutamate (mGluR5a) | effect on L-AP4-induced inhibition of transmission at SC-CA1 synapse [3] | effect on the response of mGluR4 to agonists (potentiation) (human mGluR4 [4]; concentrations up to 30 μM) | IC50 (human mGluR4 [4]; read-out: mGluR4 antagonist IC50, at higher concentrations) [µM] | EC50 (rat mGluR4; with 10 μM PHCCC) [µM] | EC50 (rat mGluR4; without PHCCC) [µM] | EC50 (human mGluR4 [5]; in the absence of PHCCC) [µM] | EC50 (human mGluR4 [5]; with 10 μM PHCCC) [µM]
N-phenyl-7-(hydroxylimino)cyclopropa[b]chromen-1a-carboxamide [PHCCC] | potentiate the effect of the mGluR4 agonist L-AP4 in inhibiting transmission; also recorded: marked inhibition | no effect | overcome inhibition of movement; also recorded: significant increase in locomotor activity | partially blocked | approximately two-fold | partially blocked | does not potentiate or activate any other mGluR subtype; also recorded: did not activate or potentiate | partially blocked | no significant effect | partially blocked | no significant effect | – | – | – | – | – | –
7-(hydroxylimino)cyclopropa[b]chromen-1a-carboxamide ethyl ester [CPCCOEt] | – | – | no effect | – | – | – | – | – | – | – | – | no mGluR4 potentiator activity; also recorded: did not have any effect | > 100 | – | – | – | –
NC(CCP(=O)(O)O)C(=O)O [L-AP4] | – | small but significant inhibition | – | – | – | – | – | – | – | – | – | – | – | 0.0676 ± 0.0052 | 0.832 ± 0.1 | 0.484 ± 0.045 | 0.0714 ± 0.0029
